Assay results published in ChEMBL document CHEMBL1201862, “PubChem BioAssay data set” (2004).
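Tested at 5 concentrations; 48 h exposure; 96-well plates; endpoints linearly interpolated, else capped at highest concentration. The concentration for 50% growth inhibition is given as GI50.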 Activity calls are given as the source filed them. Rule as the data show it: active = GI50 up to about 1.1 µM and inactive = higher.

How the values were obtained:
Experiment in all cases: growth of human tumour cells (NCI), 48 h
[1] = system: OVCAR-8
[2] = system: OVCAR-3
[3] = system: HL-60
[4] = system: NCI-H23
[5] = system: LOX IMVI
[6] = system: A498
[7] = system: CCRF-CEM
[8] = system: SF-268
[9] = system: IGROV-1
[10] = system: HOP-62
[11] = system: OVCAR-4
[12] = system: MDA-MB-435
[13] = system: SN12C
[14] = system: KM12
[15] = system: A549
[16] = system: SK-MEL-28
[17] = system: T47D
[18] = system: COLO 205
[19] = system: Hs-578T
[20] = system: UACC-62

SMILES	GI50 [1]	GI50 [2]	GI50 [3]	GI50 [4]	GI50 [5]	GI50 [6]	GI50 [7]	GI50 [8]	GI50 [9]	GI50 [10]	GI50 [11]	GI50 [12]	GI50 [13]	GI50 [14]	GI50 [15]	GI50 [16]	GI50 [17]	GI50 [18]	GI50 [19]	GI50 [20]
c1ccc(-c2sc(-c3ccccc3)c3c2C2CCC3C2)cc1	32.9 µM (inactive)	30.6 µM (inactive)	37.5 µM (inactive)	33.5 µM (inactive)	28.8 µM (inactive)	53.3 µM (inactive)	43.9 µM (inactive)	53.3 µM (inactive)	47.1 µM (inactive)	38.2 µM (inactive)	> 100 µM (inactive)	38.6 µM (inactive)	45.3 µM (inactive)	30.6 µM (inactive)	28.6 µM (inactive)	49 µM (inactive)	38.7 µM (inactive)	22.9 µM (inactive)	20 µM (inactive)	33.8 µM (inactive)
Cn1cnc([N+](=O)[O-])c1SCC(=O)O	> 100 µM (inactive)	> 100 µM (inactive)	> 100 µM (inactive)	> 100 µM (inactive)	> 100 µM (inactive)	> 100 µM (inactive)	> 100 µM (inactive)	> 100 µM (inactive)	> 100 µM (inactive)	> 100 µM (inactive)	> 100 µM (inactive)	> 100 µM (inactive)	> 100 µM (inactive)	> 100 µM (inactive)	> 100 µM (inactive)	> 100 µM (inactive)	> 100 µM (inactive)	> 100 µM (inactive)	> 100 µM (inactive)	> 100 µM (inactive)
CN(C)CCCN1c2ccccc2Sc2ccc3ccccc3c21	12.7 µM (inactive)	8.49 µM (inactive)	< 0.01 µM (active)	14.3 µM (inactive)	4.91 µM (inactive)	5.71 µM (inactive)	2.23 µM (inactive)	9.06 µM (inactive)	8.67 µM (inactive)	12 µM (inactive)	5.35 µM (inactive)	3.1 µM (inactive)	9.06 µM (inactive)	6.58 µM (inactive)	13.2 µM (inactive)	2.08 µM (inactive)	2.05 µM (inactive)	4.56 µM (inactive)	8.73 µM (inactive)	4.61 µM (inactive)
COc1ccc(N2N=NN(C(C)C)/C2=C(/Cl)c2nnnn2-c2ccc(OC)cc2)cc1	6.11 µM (inactive)	9.62 µM (inactive)	2.45 µM (inactive)	16.8 µM (inactive)	2 µM (inactive)	16 µM (inactive)	1.83 µM (inactive)	16.2 µM (inactive)	14.9 µM (inactive)	21 µM (inactive)	5.01 µM (inactive)	12.6 µM (inactive)	14.3 µM (inactive)	17.1 µM (inactive)	17.8 µM (inactive)	15.5 µM (inactive)	4.55 µM (inactive)	3.72 µM (inactive)	22.1 µM (inactive)	14.4 µM (inactive)
CC(C)/C(Cl)=N/OC(=O)Nc1ccc(Cl)c(Cl)c1	18.1 µM (inactive)	2.58 µM (inactive)	1.76 µM (inactive)	15.3 µM (inactive)	1.64 µM (inactive)	18 µM (inactive)	0.851 µM (active)	18.2 µM (inactive)	11.7 µM (inactive)	18.2 µM (inactive)	9.31 µM (inactive)	5.68 µM (inactive)	1.91 µM (inactive)	17.5 µM (inactive)	21.4 µM (inactive)	2.01 µM (inactive)	4.29 µM (inactive)	1.83 µM (inactive)	23.7 µM (inactive)	13.6 µM (inactive)
Cc1cn([C@@H]2O[C@H](CO[Si](C)(C)C(C)(C)C)[C@]3(O[C@H]3C(=O)NO)[C@H]2O[Si](C)(C)C(C)(C)C)c(=O)[nH]c1=O	1.79 µM (inactive)	1.61 µM (inactive)	1.61 µM (inactive)	1.91 µM (inactive)	1.76 µM (inactive)	1.9 µM (inactive)	0.634 µM (active)	1.62 µM (inactive)	1.71 µM (inactive)	1.76 µM (inactive)	1.75 µM (inactive)	2.07 µM (inactive)	1.61 µM (inactive)	1.79 µM (inactive)	1.82 µM (inactive)	1.76 µM (inactive)	1.66 µM (inactive)	1.76 µM (inactive)	1.92 µM (inactive)	1.82 µM (inactive)
CC1(c2ccc(F)cc2)CC(c2ccc(F)cc2)=C(C#N)C(=C(C#N)C#N)N1 (stereo not given)	20.1 µM (inactive)	5.98 µM (inactive)	6.31 µM (inactive)	17.3 µM (inactive)	18.6 µM (inactive)	19.6 µM (inactive)	2.11 µM (inactive)	15.8 µM (inactive)	17.1 µM (inactive)	19.7 µM (inactive)	13.4 µM (inactive)	16.6 µM (inactive)	16.7 µM (inactive)	15 µM (inactive)	19.1 µM (inactive)	24 µM (inactive)	13.3 µM (inactive)	5.56 µM (inactive)	23.3 µM (inactive)	14.3 µM (inactive)
N#CC1C(=O)SC2c3ccccc3C(=O)c3ccccc3C12 (stereo not given)	> 10 µM (inactive)	> 10 µM (inactive)	> 10 µM (inactive)	> 10 µM (inactive)	> 10 µM (inactive)	> 10 µM (inactive)	> 10 µM (inactive)	> 10 µM (inactive)	> 10 µM (inactive)	> 10 µM (inactive)	> 10 µM (inactive)	> 10 µM (inactive)	> 10 µM (inactive)	> 10 µM (inactive)	> 10 µM (inactive)	> 10 µM (inactive)	> 10 µM (inactive)	> 10 µM (inactive)	> 10 µM (inactive)	> 10 µM (inactive)
CC(C)(CO)NC1=C(Cl)C(=O)c2c(O)ccc(O)c2C1=O	1.29 µM (inactive)	1.55 µM (inactive)	0.233 µM (active)	1.58 µM (inactive)	0.45 µM (active)	1.84 µM (inactive)	0.33 µM (active)	2.61 µM (inactive)	1.58 µM (inactive)	1.56 µM (inactive)	1.57 µM (inactive)	1.15 µM (inactive)	1.56 µM (inactive)	1.43 µM (inactive)	1.86 µM (inactive)	1.89 µM (inactive)	1.93 µM (inactive)	1.22 µM (inactive)	0.743 µM (active)	1.35 µM (inactive)
COC(=O)c1c2c(cc3c1CC1(C3)Cc3cc4c(c(C(C)=O)c3C1)CCC4)C=CC2 (stereo not given)	> 31.6 µM (inactive)	> 31.6 µM (inactive)	16.7 µM (inactive)	> 31.6 µM (inactive)	> 10 µM (inactive)	> 31.6 µM (inactive)	20.7 µM (inactive)	> 31.6 µM (inactive)	> 31.6 µM (inactive)	> 31.6 µM (inactive)	24.5 µM (inactive)	30.5 µM (inactive)	> 31.6 µM (inactive)	> 31.6 µM (inactive)	> 31.6 µM (inactive)	29.4 µM (inactive)	5.69 µM (inactive)	> 31.6 µM (inactive)	> 31.6 µM (inactive)	30.7 µM (inactive)
O=[N+]([O-])/C(C(Cl)=C(Cl)Cl)=C(/Nc1ccccc1)SCc1ccccc1	17.7 µM (inactive)	15 µM (inactive)	19.1 µM (inactive)	20.1 µM (inactive)	20.5 µM (inactive)	25.9 µM (inactive)	15 µM (inactive)	20.5 µM (inactive)	22.3 µM (inactive)	19.1 µM (inactive)	24.7 µM (inactive)	17.8 µM (inactive)	22.4 µM (inactive)	15.3 µM (inactive)	17.8 µM (inactive)	20.4 µM (inactive)	34.6 µM (inactive)	21.9 µM (inactive)	44.1 µM (inactive)	20 µM (inactive)
CC(C)(C)[Si](C)(C)OCC1OC(n2cnc3c(=O)[nH]c(N)nc32)C(O[Si](C)(C)C(C)(C)C)C1O[Si](C)(C)C(C)(C)C (stereo not given)	3.2 µM (inactive)	1.47 µM (inactive)	0.849 µM (active)	1.44 µM (inactive)	2.09 µM (inactive)	2.39 µM (inactive)	1.3 µM (inactive)	2.58 µM (inactive)	1.92 µM (inactive)	2.64 µM (inactive)	1.74 µM (inactive)	1.47 µM (inactive)	2.2 µM (inactive)	1.64 µM (inactive)	2.34 µM (inactive)	1.93 µM (inactive)	2.09 µM (inactive)	1.72 µM (inactive)	2.46 µM (inactive)	1.22 µM (inactive)
CC(C)=CCNc1ncnc2c1ncn2CCC(=O)O	> 100 µM (inactive)	> 100 µM (inactive)	> 100 µM (inactive)	> 100 µM (inactive)	> 100 µM (inactive)	> 100 µM (inactive)	> 100 µM (inactive)	> 100 µM (inactive)	> 100 µM (inactive)	> 100 µM (inactive)	> 100 µM (inactive)	> 100 µM (inactive)	> 100 µM (inactive)	> 100 µM (inactive)	> 100 µM (inactive)	> 100 µM (inactive)	> 100 µM (inactive)	> 100 µM (inactive)	> 100 µM (inactive)	> 100 µM (inactive)
C[C@]12CC[C@@H]3c4ccc(OP(=O)(O)O)cc4CC[C@H]3[C@@H]1CCC2=O	> 100 µM (inactive)	62.8 µM (inactive)	71.4 µM (inactive)	63.1 µM (inactive)	95.9 µM (inactive)	> 100 µM (inactive)	27.6 µM (inactive)	> 100 µM (inactive)	> 100 µM (inactive)	> 100 µM (inactive)	50.9 µM (inactive)	67.5 µM (inactive)	70.1 µM (inactive)	54.5 µM (inactive)	90.2 µM (inactive)	> 100 µM (inactive)	39.6 µM (inactive)	> 100 µM (inactive)	41.3 µM (inactive)	66.2 µM (inactive)
